Source: publication PMC10515640, “Structure-Based Optimization of Covalent, Small-Molecule Stabilizers of the 14-3-3σ/ERα Protein–Protein Interaction from Nonselective Fragments” (Journal of the American Chemical Society, 2023)

Key:
14-3-3σ/C-RAF = biological target: T1, 14-3-3σ/C-RAF (Homo sapiens, UniProt P31947); assay: Mass spectrometry dose response, compound binding to 14-3-3σ in the presence of C-RAF phosphopeptide; settings: 100 nM compound, 100 nM 14-3-3σ, C-RAF peptide 18 µM
T1 construct: The 14-3-3 σ isoform (full-length for mass spectrometry and fluorescence anisotropy assays, ΔC for crystallography); made in house; host or cells: E. coli Rosetta 2(DE3)pLysS, pPROEX HTb vector
T1 sequence (P31947 1-248): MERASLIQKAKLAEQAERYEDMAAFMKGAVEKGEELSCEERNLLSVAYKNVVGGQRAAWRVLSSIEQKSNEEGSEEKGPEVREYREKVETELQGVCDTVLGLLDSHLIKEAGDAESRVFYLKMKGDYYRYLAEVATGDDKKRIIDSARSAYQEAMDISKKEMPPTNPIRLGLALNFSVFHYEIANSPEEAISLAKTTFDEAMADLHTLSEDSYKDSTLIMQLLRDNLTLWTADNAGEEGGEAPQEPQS
Text: (§1) Two orthogonal assays were developed for screening. For the primary assay, mass spectrometry (MS) was used to monitor the formation of the covalent bond between the compound and the native cysteine (Cys38 on 14-3-3σ) (Figure 1D). The assay was first performed in the absence of peptide to determine binding to 14-3-3σ only (apo screening, D1) and then in the presence of both 14-3-3σ and the peptide as an indication of how much the peptide stabilized compound binding (D2). […] As a secondary assay, fluorescence anisotropy (FA) was used. In this case, compounds were titrated to mixtures of 14-3-3σ and FAM-labeled peptides. […] Thus, the two assays are highly complementary; the MS assay reports on compound binding and the FA assay reports on peptide binding. […]
(§2) Mass spectrometry dose response assays were performed on a Waters Acquity UPLC/ Xevo G2-XS Q-Tof mass spectrometer. A Waters UPLC Protein BEH-C4 Column (300 Å, 1.7 μm, 2.1 mm x 50 mm) was used to desalt the samples prior to application on the mass spectrometer. For 19-point MS dose responses, 50 mM compound stocks in DMSO were serially diluted in 3-fold increment in a master plate, then 1000 nl of the compounds were transferred in the assay plates. Master mixes containing 100 nM full-length wild type 14-3-3σ in the absence or presence of […]
(§3) Assay buffer was TRIS (10 mM, pH 8.0) and final volume per well was 50 μl, with final top concentration of compounds dose response series at 1 mM. The reaction mixtures were incubated for 1h at rt before subjected to MS. Four measurements (1h, 8h, 16h, 24h) were performed for time-course experiments. The injection volume for each sample was 6 μl. 24 μl of sample were needed for the time-course experiments, so the total volume in the assay plate was adjusted to 50 μl, to account for the dead volume in the injections. Data collection and automated processing followed a custom workflow, as previously described.1 z Plots were created using GraphPad Prism with the log(agonist) vs. response (variable slope, four parameters) fitting model. […]

14-3-3σ/ERα [1] = biological target: T2, 14-3-3σ/ERα (Homo sapiens, UniProt P03372+P31947); assay: Mass spectrometry dose response, compound binding to 14-3-3σ in the presence of ERα phosphopeptide; settings: 100 nM compound, 100 nM 14-3-3σ, ERα-peptide 2 µM
T2 construct: The 14-3-3 σ isoform (full-length for mass spectrometry and fluorescence anisotropy assays, ΔC for crystallography); made in house; host or cells: E. coli Rosetta 2(DE3)pLysS, pPROEX HTb vector
Text: as §1, §2, §3

14-3-3σ = biological target: T3, 14-3-3σ (Homo sapiens, UniProt P31947); assay: Mass spectrometry dose response, compound binding to 14-3-3σ in the absence of peptide (apo); settings: 100 nM compound, 100 nM 14-3-3σ
T3 construct: The 14-3-3 σ isoform (full-length for mass spectrometry and fluorescence anisotropy assays, ΔC for crystallography); made in house; host or cells: E. coli Rosetta 2(DE3)pLysS, pPROEX HTb vector
T3 sequence (P31947 1-248): T1 sequence (P31947 1-248)
Text: as §1, §2, §3

14-3-3σ/ERα [2] = biological target: T2, 14-3-3σ/ERα; assay: Fluorescence anisotropy compound titration, FAM-labeled ERα peptide; type: binding; settings: 10 nM ERα-FAM labeled peptide, 1 µM 14-3-3σ, overnight incubation (24 h); read-out: EC50 value ERα (FA compound titration)
Text: as §1
diluted in buffer (10 mM HEPES, pH 7.5, 150 mM NaCl, 0.1% Tween20, 1 mg/mL Bovine Serum Albumin (BSA; Sigma-Aldrich). Final DMSO in the assay was always 1%. Dilution series of 14-3-3 proteins or compounds were made in […]
Compound titrations were made by titrating the compound in a 2-fold dilution series (starting at 500 or 1000 µM) to a mix of fluorescein-labeled peptide (10 nM) and 14-3-3σ (concentration at approximately the EC20 to EC30 value of the protein-peptide complex; 1 µM for ERα and 5 µM for C-RAF). Using the ~EC25 value makes the assay sensitive for measuring an increase in PPI formation. Fluorescence anisotropy measurements were performed directly and after overnight incubation at room temperature. […]
Wells containing only FAM-peptide were used to set as G-factor at 35 mP. Data reported are at endpoint. EC50 and apparent Kd values were obtained from fitting the data with a four-parameter logistic model (4PL) in GraphPad Prism 7 for Windows. Data was obtained and averaged based on either three (compound titrations) or two (protein titrations) independent experiments.

Compound	Percentage (%) bound of compound to 14-3-3σ, CRAF 1h (14-3-3σ/C-RAF)	Percentage (%) bound of compound to 14-3-3σ, CRAF 8h (14-3-3σ/C-RAF)	Percentage (%) bound of compound to 14-3-3σ, CRAF 24h (14-3-3σ/C-RAF; 24h)	Percentage (%) bound of compound to 14-3-3σ, CRAF 24h (14-3-3σ/C-RAF; head prints 24h)	Percentage (%) bound of compound to 14-3-3σ, ERα 1h (14-3-3σ/ERα [1])	Percentage (%) bound of compound to 14-3-3σ, ERα 8h (14-3-3σ/ERα [1])	Percentage (%) bound of compound to 14-3-3σ, ERα 16h (14-3-3σ/ERα [1])	Percentage (%) bound of compound to 14-3-3σ, ERα 24h (14-3-3σ/ERα [1])	Percentage (%) bound of compound to 14-3-3σ, APO 1h (14-3-3σ)	Percentage (%) bound of compound to 14-3-3σ, APO 8h (14-3-3σ)	Percentage (%) bound of compound to 14-3-3σ, APO 16h (14-3-3σ)	Percentage (%) bound of compound to 14-3-3σ, APO 24h (14-3-3σ)	EC50 (14-3-3σ/ERα [2])
Cl.NC1CCC(Oc2ccccc2)(C(=O)N2CCC(CNC(=O)CCl)CC2)CC1 (stereo not drawn) [compound 139]	0%	0%	1.0%	0%	0%	0%	0%	1.0%	0%	0%	2.0%	2.0%	> 150 µM
O=C(CCl)NCC1CCN(C(=O)C2(Nc3ccccc3)CCC2)CC1 [compound 98]	0%	0%	0%	0%	0%	0%	0%	0%	0%	1.5%	4.0%	4.0%	> 150 µM
O=C(CCl)NCCC1CCN(C(=O)C2(Nc3ccc(Cl)cc3)CCOCC2)CC1 [compound 148]	0%	0%	0%	0%	0%	0%	1.0%	1.1%	0%	0%	0%	0%	92 ± 8 µM
CC(C)(Oc1ccc(Cl)cc1)C(=O)N1CCC(CCC(=O)CCl)CC1 [compound 37]	98.8%	99.9%	100%	99.9%	56.4%	97.6%	100%	100%	12.0%	40.8%	72.0%	90.3%	44 ± 2 µM
Cl.NC1CCC(Nc2ccccc2)(C(=O)N2CCC(CNC(=O)CCl)CC2)CC1 (stereo not drawn) [compound 141]	1.0%	2.9%	22.1%	16.3%	1.0%	10.2%	83.3%	89.9%	0%	0%	0.8%	25.6%	> 150 µM
O=C(CCl)NCCC1CCN(C(=O)C2(Nc3ccc(Cl)cc3)CCNCC2)CC1 [compound 151]	0%	1.0%	3.7%	1.5%	6.5%	20.6%	48.0%	75.0%	0%	0%	1.8%	2.2%	16 ± 2 µM
O=C(CCl)CCC1CCN(C(=O)C2(Nc3ccc(Cl)cc3)CCOCC2)CC1 [compound 156]	54.7%	62.3%	99.4%	92.0%	81.1%	97.0%	100%	100%	18.0%	35.7%	70.7%	95.1%	5 ± 0.3 µM
O=C(CCl)NCCCC1CCN(C(=O)C2(Nc3ccc(Cl)cc3)CCNCC2)CC1 [compound 153]	0%	0%	0%	0%	23.1%	44.7%	76.1%	88.8%	4.7%	7.4%	7.8%	8.0%	16 ± 1 µM
Cl.O=C(CCl)NCC1CCN(C(=O)C2(Nc3ccccc3)CCNCC2)CC1 [compound 133]	0%	1.0%	1.1%	1.1%	4.5%	12.9%	26.7%	47.0%	0.7%	1.1%	1.2%	10.3%	115 µM
